Target: T1, human wild-type (WT)-pendrin (Homo sapiens, UniProt O43511)
T1 construct: expressed in transfected cells
T1 sequence (O43511 1-780): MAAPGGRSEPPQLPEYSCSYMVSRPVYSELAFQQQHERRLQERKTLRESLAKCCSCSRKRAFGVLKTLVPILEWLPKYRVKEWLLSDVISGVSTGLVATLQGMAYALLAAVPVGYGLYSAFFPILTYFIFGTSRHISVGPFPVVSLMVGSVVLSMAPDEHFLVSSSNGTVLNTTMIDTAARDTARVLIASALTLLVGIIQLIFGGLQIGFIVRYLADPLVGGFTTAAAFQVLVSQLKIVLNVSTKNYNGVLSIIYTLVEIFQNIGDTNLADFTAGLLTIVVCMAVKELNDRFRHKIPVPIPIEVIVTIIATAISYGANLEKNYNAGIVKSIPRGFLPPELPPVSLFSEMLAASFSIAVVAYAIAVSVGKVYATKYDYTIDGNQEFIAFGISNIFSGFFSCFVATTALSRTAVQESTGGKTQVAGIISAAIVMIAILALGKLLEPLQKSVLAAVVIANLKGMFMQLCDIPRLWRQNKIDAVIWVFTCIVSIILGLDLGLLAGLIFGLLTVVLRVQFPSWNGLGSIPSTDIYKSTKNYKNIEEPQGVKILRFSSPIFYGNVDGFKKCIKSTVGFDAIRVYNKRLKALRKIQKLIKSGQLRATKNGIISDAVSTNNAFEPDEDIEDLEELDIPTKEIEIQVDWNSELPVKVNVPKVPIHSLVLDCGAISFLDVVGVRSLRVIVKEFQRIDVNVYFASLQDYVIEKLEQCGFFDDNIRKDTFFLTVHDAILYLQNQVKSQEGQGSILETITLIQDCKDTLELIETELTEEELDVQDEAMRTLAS
Experiment: Pendrin Cl−/I− exchange inhibitory activity, YFP fluorescence in CHO-K1 cells
Type: cell-based
Details: CHO-K1; for inhibition at 1 µM: compound concentration 1 μM; for inhibition at 3 µM: compound concentration 3 μM; for inhibition at 10 µM: compound concentration 10 μM; for inhibition at 30 µM: compound concentration 30 μM; for inhibition at 100 µM: compound concentration 100 μM
Procedure: Chinese hamster ovary (CHO)-K1 cells were cultured in DMEM medium containing 10% fetal bovine serum (FBS), 100 units/ml of penicillin and 100 μg/ml streptomycin. CHO-K1 cells were stably transfected with pcDNA3.1 encoding the halide sensor YFP-H148Q/I152L/F46L and human wild-type (WT)-pendrin.
(§1) CHO-K1 cells expressing human WT pendrin and YFP-F46L/H148Q/I152L were plated in 96-well microplates at a density of 2×10^4 cells per well, and cultured for 48 hours. Each well of the cell cultured 96-well plate was washed 2 times with 200 μL of PBS, and filled with 50 μL of HEPES buffered solution (140 mM NaCl, 5 mM KCl, 1 mM MgCl2, 1 mM CaCl2), 10 mM glucose and 10 mM HEPES (pH 7.4)). Test compounds (1 μL) were added to a final concentration of 1, 3, 10, 30 and 100 μM. After culturing at 37° C. for 10 minutes, the 96-well plate was located on the FLUOstar Omega Microplate Reader (BMG Labtech, Ortenberg, Germany) for a fluorescence assay. Fluorescence was recorded continuously (400 ms per point) for 1 second (baseline), whereby each well was assayed individually for pendrin-mediated I-influx. Then 50 μL of Na-substituted HEPES buffered solution (replacing NaCl with NaI) was added using a liquid injector at 1 second, and YFP fluorescence was recorded for 5 seconds. The initial iodide influx rate was determined from the initial slope of fluorescence by nonlinear regression, after the injection of iodide.
as §1, with “Chinese hamster ovary (CHO)-K1 cells were cultured in DMEM medium containing 10% fetal bovine serum (FBS), 100 units/ml of penicillin and 100 μg/ml streptomycin. CHO-K1 cells were stably transfected with pcDNA3.1 encoding the halide sensor YFP-H148Q/I152L/F46L and human wild-type (WT)-pendrin. 3-2: Assay of Cl^−/I^− exchange activity CHO-K1” for “CHO-K1”, “50” for “1, 3, 10, 30 and 100”, “Then,” for “Then”, “NaI-substituted” for “Na-substituted”

Cc1ccc2[nH]c(C(=O)O)c(CC(=O)N3CCN(c4ccc(C(C)(C)C)cc4)CC3)c2c1 [YPI-A4944, 3-(2-(4-(4-(Tert-butyl)phenyl)piperazin-1-yl)-2-oxoethyl)-5-methyl-1H-indole-2-carboxylic acid]
inhibition at 1 µM: < 20%
inhibition at 3 µM: < 20%
inhibition at 10 µM: 45.4%
inhibition at 30 µM: 76.2%
inhibition at 100 µM: 77.3%

Cc1cc(C)c2[nH]c(C(=O)O)c(CC(=O)N3CCN(c4ccc(C(C)(C)C)cc4)CC3)c2c1 [YPI-A4945]
inhibition at 1 µM: < 20%
inhibition at 3 µM: < 20%
inhibition at 10 µM: < 20%
inhibition at 30 µM: 38.5%
inhibition at 100 µM: 38.6%

Cc1ccc2[nH]c(C(=O)O)c(CC(=O)N3CCN(c4c(C)cccc4C)CC3)c2c1 [YPI-A4946, 3-(2-(4-(2,6-Dimethylphenyl)piperazin-1-yl)-2-oxoethyl)-5-methyl-1H-indole-2-carboxylic acid]
inhibition at 1 µM: 22.4%
inhibition at 3 µM: 56.9%
inhibition at 10 µM: 82.3%
inhibition at 30 µM: 94.5%
inhibition at 100 µM: 95.6%

Cc1cc(C)c2[nH]c(C(=O)O)c(CC(=O)N3CCN(c4c(C)cccc4C)CC3)c2c1 [YPI-A4947, 3-(2-(4-(2,6-dimethylphenyl)piperazin-1-yl)-2-oxoethyl)-5,7-dimethyl-1H-indole-2-carboxylic acid]
inhibition at 1 µM: < 20%
inhibition at 3 µM: < 20%
inhibition at 10 µM: 40.8%
inhibition at 30 µM: 41.3%
inhibition at 100 µM: 41.9%

Cc1cc(C)c2[nH]c(C(=O)O)c(CC(=O)N3CCN(c4c(C)cccc4Cl)CC3)c2c1 [YPI-A4949, 3-(2-(4-(2-Chloro-6-methylphenyl)piperazin-1-yl)-2-oxoethyl)-5,7-dimethyl-1H-indole-2-carboxylic acid]
inhibition at 1 µM: < 20%
inhibition at 3 µM: 39.5%
inhibition at 10 µM: 78.9%
inhibition at 30 µM: 79.3%
inhibition at 100 µM: 79.6%

Cc1cccc(Cl)c1N1CCN(C(=O)Cc2c(C(=O)O)[nH]c3ccc(F)cc23)CC1 [YPI-A4963, 3-(2-(4-(2-Chloro-6-methylphenyl)piperazin-1-yl)-2-oxoethyl)-5-fluoro-1H-indole-2-carboxylic acid]
inhibition at 1 µM: < 20%
inhibition at 3 µM: 52.3%
inhibition at 10 µM: 89.6%
inhibition at 30 µM: 100%

Cc1cccc(C)c1N1CCN(C(=O)Cc2c(C(=O)O)[nH]c3ccc(F)cc23)CC1 [YPI-A4964, 3-(2-(4-(2,6-Dimethylphenyl)piperazin-1-yl)-2-oxoethyl)-5-fluoro-1H-indole-2-carboxylic acid]
inhibition at 1 µM: < 20%
inhibition at 3 µM: < 20%
inhibition at 10 µM: 51.4%
inhibition at 30 µM: 88.9%

CC(C)(C)c1ccc(N2CCN(C(=O)Cc3c(C(=O)O)[nH]c4ccc(F)cc34)CC2)cc1 [YPI-A4965, 3-(2-(4-(4-(Tert-butyl)phenyl)piperazin-1-yl)-2-oxoethyl)-5-fluoro-1H-indole-2-carboxylic acid]
inhibition at 1 µM: < 20%
inhibition at 3 µM: < 20%
inhibition at 10 µM: < 20%
inhibition at 30 µM: 62.7%

O=C(O)c1[nH]c2ccc(Cl)cc2c1CC(=O)N1CCN(c2ccc(-c3ccccc3)cc2)CC1 [YPI-A4966, 3-(2-(4-([1,1′-biphenyl]-4-yl)piperazin-1-yl)-2-oxoethyl)-5-chloro-1H-indole-2-carboxylic acid]
inhibition at 1 µM: < 20%
inhibition at 3 µM: < 20%
inhibition at 10 µM: < 20%
inhibition at 30 µM: < 20%
inhibition at 100 µM: < 20%

Reference: patent US20240287042A1, “NOVEL COMPOUND HAVING INHIBITORY ACTIVITY AGAINST PENDRIN, AND PHARMACEUTICAL USES THEREOF” (UIF (University Industry Foundation), Yonsei University, priority 2021, published 2024)
